According to patent publication US10633419B2, “Immunomodulators” (BRISTOL-MYERS SQUIBB COMPANY, priority 2014, dated 2020):
Each block holds one compound with its values, some of them ahead of it. Starred links: 1 amine or outer side, 2 acyl side, 3 side chain; linkers in the order of their positions; H or OH if unused. Positions of bridges follow the written chain, without caps; N, C: chain ends. Non-standard residues stand in square brackets, D forms with d. Residues, ends and D or L forms follow the SMILES beside them. Groups on a side chain read outwards from the residue. *: point of attachment. X6 = O=C(O)CCCCCCCCCCCCCCCCC(=O)N[C@@H](CCC(=O)NCCCOCCOCCOCCCN*)C(=O)O; X18 = O=C(O)CCCCCCCCCCCCCCC(=O)N[C@@H](CC(=O)NCCCOCCOCCOCCCN*)C(=O)O; X11 = O=C(O)CCCCCCCCCCCCC(=O)N[C@@H](CCC(=O)NCCCOCCOCCOCCCN*)C(=O)O; Trp(1-CH2COOH) = N[C@@H](Cc1cn(CC(=O)O)c2ccccc12)C(=O)O; C18 diacid = O=C(O)CCCCCCCCCCCCCCCCC(=O)*; γGlu = O=C(O)[C@H](CCC(=O)[*:2])N[*:1]; Palmitoyl = CCCCCCCCCCCCCCCC(=O)*; Hyp = O=C(O)[C@@H]1C[C@@H](O)CN1; NMeF = CN[C@@H](Cc1ccccc1)C(=O)O; Myristoyl = CCCCCCCCCCCCCC(=O)*; NMeE = CN[C@@H](CCC(=O)O)C(=O)O; dHyp = O=C(O)[C@H]1C[C@H](O)CN1; Undecanoyl = CCCCCCCCCCC(=O)*; NMeNle = CCCC[C@H](NC)C(=O)O; Pip = O=C(O)[C@@H]1CCCCN1; NMeA = CN[C@@H](C)C(=O)O; Pra = C#CC[C@H](N)C(=O)O; Aun = NCCCCCCCCCCC(=O)O; Dab = NCC[C@H](N)C(=O)O; Dap = NC[C@H](N)C(=O)O; Sar = CNCC(=O)O

Biological target: T1, PD-L1 (Homo sapiens, UniProt Q9NZQ7)
T1 construct: hPDL1(19-239)-TVMV-His; made in house; host or cells: HEK293T
T1 sequence (Q9NZQ7 with tags, fused parts or gaps): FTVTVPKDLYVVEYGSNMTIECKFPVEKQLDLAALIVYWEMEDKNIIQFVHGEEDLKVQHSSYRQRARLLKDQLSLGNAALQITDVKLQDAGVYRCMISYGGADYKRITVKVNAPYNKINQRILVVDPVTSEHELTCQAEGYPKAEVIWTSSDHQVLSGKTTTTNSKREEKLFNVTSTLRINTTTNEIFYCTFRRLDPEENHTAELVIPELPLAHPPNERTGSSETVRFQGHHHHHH
Test: PD-1/PD-L1 Homogenous Time-Resolved Fluorescence (HTRF) binding assay (PD-1-Ig/PD-L1-His)
Conditions: inhibition of PD-1-Ig binding to PD-L1-TVMV-His; value given as range class; read-out: HTRF IC50
In short: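 HTRF competition in dPBS with 0.1% BSA and 0.05% Tween-20: 20 nM PD-1-Ig added after 15 min compound pre-incubation with 10 nM PD-L1-His, then another 15 min. Signal (665/620 nm) after 30 min with APC anti-His (20 nM) and Eu anti-Ig (1 nM).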

IC50: 10 to 99 nM
SMILES: CCCC[C@H]1C(=O)N(C)[C@@H](CCCC)C(=O)N[C@@H](CC(C)C)C(=O)N[C@H](C(=O)NCC(=O)N[C@@H](CCNC(=O)CC[C@H](NC(=O)CCCCCCCCCCCCCCCCC(=O)O)C(=O)O)C(=O)O)CSCC(=O)N[C@@H](Cc2ccc(OC)cc2)C(=O)N2CCCC[C@H]2C(=O)N[C@@H](CC(N)=O)C(=O)N2CCC[C@H]2C(=O)N[C@@H](Cc2c[nH]cn2)C(=O)N[C@@H](CC(C)C)C(=O)N2C[C@H](O)C[C@H]2C(=O)N[C@@H](Cc2c[nH]c3ccccc23)C(=O)N[C@@H](CCN)C(=O)N[C@@H](Cc2cn(CC(=O)O)c3ccccc23)C(=O)N1C [Example 13151] ({CH2CO}-Y(Me)[Pip]NPHL[Hyp]W[Dab][Trp(1-CH2COOH)][NMeNle][NMeNle]LCG[Dab]([γGlu-C18 diacid])-OH; thioether N-14)

IC50: 10 to 99 nM
SMILES: CCCC[C@H]1C(=O)N(C)[C@@H](CCCC)C(=O)N[C@@H](CCC(=O)O)C(=O)N[C@H](C(=O)NCC(=O)N[C@@H](CC(=O)NCCCOCCOCCOCCCNC(=O)CC[C@H](NC(=O)CCCCCCCCCCCCCCCCC(=O)O)C(=O)O)C(=O)O)CSCC(=O)N[C@@H](Cc2ccc(O)cc2)C(=O)N(C)[C@@H](C)C(=O)N[C@@H](CC(=O)O)C(=O)N(C)CC(=O)N[C@@H](Cc2c[nH]cn2)C(=O)N[C@@H](CCCCN)C(=O)N2C[C@H](O)C[C@H]2C(=O)N[C@@H](Cc2c[nH]c3ccccc23)C(=O)N[C@@H](CCN)C(=O)N[C@@H](Cc2cn(CC(=O)O)c3ccccc23)C(=O)N1C [Example 11174] ({CH2CO}-Y[NMeA]D[Sar]HK[Hyp]W[Dab][Trp(1-CH2COOH)][NMeNle][NMeNle]ECGD(X6)-OH; thioether N-14)

IC50: 100 to 1600 nM
SMILES: CCCC[C@H]1C(=O)N(C)[C@@H](CCCC)C(=O)N[C@@H](CCC(=O)O)C(=O)N[C@H](C(=O)NCC(=O)N[C@@H](Cc2cn(CCOCCOCCOCCOCCOCCOCCOCCOCCOCCOCCOCCNC(=O)CC[C@H](NC(=O)CCCCCCCCCCCCCCCCC(=O)O)C(=O)O)nn2)C(=O)O)CSCC(=O)N[C@@H](Cc2ccc(O)cc2)C(=O)N2CCCC[C@H]2C(=O)N[C@@H](CC(N)=O)C(=O)N2CCC[C@H]2C(=O)N[C@@H](CNC)C(=O)N[C@@H](CC(C)C)C(=O)N2C[C@H](O)C[C@H]2C(=O)N[C@@H](Cc2c[nH]c3ccccc23)C(=O)N[C@@H](CCN)C(=O)N[C@@H](Cc2cn(CC(=O)O)c3ccccc23)C(=O)N1C [Example 14107]

IC50: 10 to 99 nM
SMILES: CCCC[C@H]1C(=O)N(C)[C@@H](CCCC)C(=O)N[C@@H](CC(C)C)C(=O)C[C@H](C(=O)NCC(=O)N[C@@H](CCC(=O)O)C(=O)NCCCOCCOCCOCCCNC(=O)CC[C@H](NC(=O)CCCCCCCCCCCCCCC(=O)O)C(=O)O)CSCC(=O)N[C@@H](Cc2ccc(O)cc2)C(=O)N(C)[C@@H](C)C(=O)N[C@@H](CC(N)=O)C(=O)N2CCC[C@H]2C(=O)N[C@@H](CN)C(=O)N[C@@H](CC(C)C)C(=O)N2C[C@H](O)C[C@H]2C(=O)N[C@@H](Cc2c[nH]c3ccccc23)C(=O)N[C@@H](CCN)C(=O)N[C@@H](Cc2cn(CC(=O)O)c3ccccc23)C(=O)N1C [Example 11184]

IC50: 0.3 to 9.9 nM
SMILES: C#CC[C@H](NC(=O)CNC(=O)[C@@H]1CSCC(=O)N[C@@H](Cc2ccc(O)cc2)C(=O)N(C)[C@@H](C)C(=O)N[C@@H](CC(=O)O)C(=O)N2CCC[C@H]2C(=O)N[C@@H](Cc2c[nH]cn2)C(=O)N[C@@H](CCCCN)C(=O)N2C[C@H](O)C[C@H]2C(=O)N[C@@H](Cc2c[nH]c3ccccc23)C(=O)N[C@@H](CCCCN)C(=O)N[C@@H](Cc2c[nH]c3ccccc23)C(=O)N(C)[C@@H](CCCC)C(=O)N(C)[C@@H](CCCC)C(=O)N[C@@H](CCC(=O)O)C(=O)N1)C(=O)N[C@@H](CC(=O)O)C(N)=O [INT 1400B] ({CH2CO}-Y[NMeA]DPHK[Hyp]WKW[NMeNle][NMeNle]ECG[Pra]D-NH2; thioether N-14)

IC50: 0.3 to 9.9 nM
SMILES: CCCC[C@H]1C(=O)N(C)[C@@H](CCCC)C(=O)N[C@@H](CC(C)C)C(=O)N[C@H](C(=O)N[C@@H](CC(=O)O)C(=O)N[C@@H](CCC(=O)NCCCOCCOCCOCCCNC(=O)CC[C@H](NC(=O)CCCCCCCCCCCCC(=O)O)C(=O)O)C(=O)O)CSCC(=O)N[C@@H](Cc2ccc(O)cc2)C(=O)N(C)[C@@H](C)C(=O)N[C@@H](CC(N)=O)C(=O)N2CCC[C@H]2C(=O)N[C@@H](CN)C(=O)N[C@@H](CC(C)C)C(=O)N2C[C@H](O)C[C@H]2C(=O)N[C@@H](Cc2c[nH]c3ccccc23)C(=O)N[C@@H](CCN)C(=O)N[C@@H](Cc2cn(CC(=O)O)c3ccccc23)C(=O)N1C [Example 11261] ({CH2CO}-Y[NMeA]NP[Dap]L[Hyp]W[Dab][Trp(1-CH2COOH)][NMeNle][NMeNle]LCDE(X11)-OH; thioether N-14)

IC50: 0.3 to 9.9 nM
SMILES: C#CC[C@H](NC(=O)CNC(=O)[C@@H]1CSCC(=O)N[C@@H](Cc2ccc(O)cc2)C(=O)N(C)[C@@H](C)C(=O)N[C@@H](CC(=O)O)C(=O)N2CCC[C@H]2C(=O)N[C@@H](Cc2c[nH]cn2)C(=O)N[C@@H](CCCCN)C(=O)N2C[C@H](O)C[C@H]2C(=O)N[C@@H](Cc2c[nH]c3ccccc23)C(=O)N[C@@H](CCCCN)C(=O)N[C@@H](Cc2c[nH]c3ccccc23)C(=O)N(C)[C@@H](CCCC)C(=O)N(C)[C@@H](CCCC)C(=O)N[C@@H](CCC(=O)O)C(=O)N1)C(=O)NCC(N)=O [INT 1400A] ({CH2CO}-Y[NMeA]DPHK[Hyp]WKW[NMeNle][NMeNle]ECG[Pra]G-NH2; thioether N-14)

IC50: 0.3 to 9.9 nM
SMILES: CCCC[C@H]1C(=O)N(C)[C@@H](CCCC)C(=O)N[C@@H](CC(C)C)C(=O)N[C@@H](C(=O)NCC(=O)N[C@@H](CC(=O)O)C(=O)NCCCOCCOCCOCCCNC(=O)C[C@H](NC(=O)CCCCCCCCCCCCCCC(=O)O)C(=O)O)CSCC(=O)N[C@@H](Cc2ccc(O)cc2)C(=O)N(C)[C@@H](C)C(=O)N[C@@H](CC(N)=O)C(=O)N2CCC[C@@H]2C(=O)N[C@@H](CN)C(=O)N[C@@H](CC(C)C)C(=O)N2C[C@@H](O)C[C@@H]2C(=O)N[C@@H](Cc2c[nH]c3ccccc23)C(=O)N[C@@H](CCN)C(=O)N[C@@H](Cc2cn(CC(=O)O)c3ccccc23)C(=O)N1C [Example 11238] ({CH2CO}-Y[NMeA]N[dP][Dap]L[dHyp]W[Dab][Trp(1-CH2COOH)][NMeNle][NMeNle]L[dC]GD-X18; thioether N-14)

The next lines start with the compound.

SMILES: CCCC[C@H]1C(=O)N(C)CC(=O)N[C@@H](CC(=O)O)C(=O)N[C@@H](C(C)C)C(=O)N(C)[C@@H](Cc2ccccc2)C(=O)N[C@@H](Cc2ccc(O)cc2)C(=O)N(C)[C@@H](CCC(=O)O)C(=O)N[C@@H](Cc2c[nH]c3ccccc23)C(=O)N[C@@H](Cc2ccc(O)cc2)C(=O)N[C@@H](CC(C)C)C(=O)N[C@H](C(=O)NCC(=O)NCC(=O)NCC(=O)N[C@@H](CCCCN)C(N)=O)CSCC(=O)N[C@@H](Cc2ccccc2)C(=O)N(C)[C@@H](Cc2ccccc2)C(=O)N1C [Example 3619] ({CH2CO}-F[NMeF][NMeNle][Sar]DV[NMeF]Y[NMeE]WYLCGGGK-NH2; thioether N-13)
IC50: 0.3 to 9.9 nM

SMILES: CCCCCCCCCCCCCC(=O)N[C@@H](CCC(=O)NCCCC[C@H](NC(=O)[C@H](CC(=O)O)NC(=O)CNC(=O)CNC(=O)[C@@H]1CSCC(=O)N[C@@H](Cc2ccc(O)cc2)C(=O)N(C)[C@@H](C)C(=O)N[C@@H](CC(=O)O)C(=O)N2CCC[C@H]2C(=O)N[C@@H](Cc2cnc[nH]2)C(=O)N[C@@H](CC(C)C)C(=O)N2C[C@H](O)C[C@H]2C(=O)N[C@@H](Cc2c[nH]c3ccccc23)C(=O)N[C@@H](CO)C(=O)N[C@@H](Cc2c[nH]c3ccccc23)C(=O)N(C)[C@@H](CCCC)C(=O)N(C)[C@@H](CCCC)C(=O)N[C@@H](CCCNC(=N)N)C(=O)N1)C(N)=O)C(=O)O [Example 11123] ({CH2CO}-Y[NMeA]DPHL[Hyp]WSW[NMeNle][NMeNle]RCGGDK([γGlu-Myristoyl])-NH2; thioether N-14)
IC50: 10 to 99 nM

SMILES: CCCCCCCCCCCCCCCC(=O)NCCCC[C@H](NC(=O)CNC(=O)[C@H](CO)NC(=O)CNC(=O)[C@H](CO)NC(=O)CNC(=O)[C@@H]1CSCC(=O)N[C@@H](Cc2ccc(O)cc2)C(=O)N(C)[C@@H](C)C(=O)N[C@@H](CC(N)=O)C(=O)N2CCC[C@H]2C(=O)N[C@@H](CCN)C(=O)N[C@@H](CC(C)C)C(=O)N2C[C@H](O)C[C@H]2C(=O)N[C@@H](Cc2c[nH]c3ccccc23)C(=O)N[C@@H](CO)C(=O)N[C@@H](Cc2c[nH]c3ccccc23)C(=O)N(C)[C@@H](CCCC)C(=O)N(C)[C@@H](CCCC)C(=O)N[C@@H](CCCNC(=N)N)C(=O)N1)C(N)=O [Example 11021] ({CH2CO}-Y[NMeA]NP[Dab]L[Hyp]WSW[NMeNle][NMeNle]RCGSGSGK(Palmitoyl)-NH2; thioether N-14)
IC50: 100 to 1600 nM

SMILES: CCCC[C@H]1C(=O)N(C)[C@@H](CCCC)C(=O)N[C@@H](CC(C)C)C(=O)N[C@H](C(=O)NCC(=O)NCC(=O)NCC(=O)NCCCCCCCCCCC(=O)O)CSCC(=O)N[C@@H](Cc2ccc(O)cc2)C(=O)N(C)[C@@H](C)C(=O)N[C@@H](CC(N)=O)C(=O)N2CCC[C@H]2C(=O)N[C@@H](CN)C(=O)N[C@@H](CCC(=O)O)C(=O)N2C[C@H](O)C[C@H]2C(=O)N[C@@H](Cc2c[nH]c3ccccc23)C(=O)N[C@@H](CCN)C(=O)N[C@@H](Cc2cn(CC(=O)O)c3ccccc23)C(=O)N1C [Example 11093] ({CH2CO}-Y[NMeA]NP[Dap]E[Hyp]W[Dab][Trp(1-CH2COOH)][NMeNle][NMeNle]LCGGG[Aun]-OH; thioether N-14)
IC50: 10 to 99 nM

SMILES: CCCCCCCCCCC(=O)NCCCC[C@H](NC(=O)CNC(=O)[C@@H]1CSCC(=O)N[C@@H](Cc2ccc(O)cc2)C(=O)N(C)[C@@H](C)C(=O)N[C@@H](CC(N)=O)C(=O)N2CCC[C@H]2C(=O)N[C@@H](Cc2cnc[nH]2)C(=O)N[C@@H](CCC(=O)O)C(=O)N2C[C@H](O)C[C@H]2C(=O)N[C@@H](Cc2c[nH]c3ccccc23)C(=O)N[C@@H](CCN)C(=O)N[C@@H](Cc2c[nH]c3ccccc23)C(=O)N(C)[C@@H](CCCC)C(=O)N(C)[C@@H](CCCC)C(=O)N[C@@H](CCN)C(=O)N1)C(N)=O [Example 11007] ({CH2CO}-Y[NMeA]NPHE[Hyp]W[Dab]W[NMeNle][NMeNle][Dab]CGK(Undecanoyl)-NH2; thioether N-14)
IC50: 10 to 99 nM
